The values that follow come from publication PMC9002265, “A New Series of Strigolactone Analogs Derived From Cinnamic Acids as Germination Inducers for Root Parasitic Plants” (Frontiers in Plant Science, 2022).

One assay relates to Striga hermonthica seeds. Also on record: method as in Uraguchi et al., 2018. As to conditions: ref Uraguchi et al., 2018; cited from earlier work.
Another assay deals with Arabidopsis max4 mutant. Put plainly: Shoot branching assay, hydroponic culture. The class given is in vivo. To be noted: 1 μM in hydroponic culture. As for the experimental part:
Sterilized seeds of the Arabidopsis max4-8 mutant were put on the rockwool which was soaked in Noren’s hydroponic solution ([Noren et al., 2004]) and cultured at 22°C for 14 days under LED light (105 μmol/m^2/s) with a 16 h light/8 h dark photoperiod. Seedlings were transferred to a plastic pot containing 800 ml of hydroponic culture and grown under the same conditions for additional 15 or 16 days. Test compounds were dissolved in acetone and added to hydroponic culture. The final concentration of test compounds was 1 or 5 μM and acetone was adjusted to 0.01% (v/v). The hydroponic culture was renewed after 7 days. The number of rosette branches (>5 mm) was counted. In the experience at 5 μM concentration, fresh weight of shoot was also measured to evaluate the side effects of tested compounds.

As to `CCCCOc1ccc(S(=O)(=O)N2CCN(C(=O)OC3C=C(C)C(=O)O3)CC2)cc1` (centres unmarked) [SPL7, sphynolactone-7], the “concentration inducing S. hermonthica germination” value in the assay on Striga hermonthica seeds is “fM concentrations”.

`CC1=CC(O/C=C2\CCOC2=O)OC1=O` (centres unmarked) [GR5]: the “shoot branching inhibition of max4” value in the assay with Arabidopsis max4 mutant is given as “clearly inhibited shoot branching”.
